Earlier results on 1 compound are cited in patent publication US20250000872A1, “FORMULATIONS AND DOSING REGIMENS FOR RIP1 KINASE INHIBITORS FOR TREATING AUTOIMMUNE AND INFLAMMATORY DISEASES” (Eli Lilly and Company, priority 2023, published 2025).

The test system of data set [1] is patients with mild-to-moderate active plaque-type psoriasis. As to conditions: 60 mg orally b.i.d. and 60 mg orally t.i.d.; cited from earlier work.
The conditions of data set [2]: modified release formulations, fasted state; not maintained with standard or high-fat meal; cited from earlier work.
The test system of data set [3] is patients with moderate to severe RA. As to conditions: 60 mg orally b.i.d. and t.i.d. for up to 84 days; cited from earlier work.
The next data set concerns UC. As to conditions: 60 mg orally t.i.d. for up to 84 days; cited from earlier work.

For `CN1C(=O)[C@@H](NC(=O)c2nnc(Cc3ccccc3)[nH]2)COc2ccccc21` [GSK2982772, 5-Benzyl-N-[(3S)-5-methyl-4-oxo-2,3-dihydro-1,5-benzoxazepin-3-yl]-1H-1,2,4-triazole-3-carboxamide], in data set [1], the “clinical improvement over placebo” value is “limited”. The “GSK2982772 released over 12 h” value in data set [2] is on record as 80%. Further, the “difference over placebo in disease activity, radiological progression, or inflammatory markers” value in data set [3] is reported as “No significant difference”. Moreover, the “histological disease activity or clinical efficacy compared with placebo” value with UC was “does not lead to differences”.
